Columns and labels:
[1] = tested on: DIO mice; test: Long-term administration on DIO mice: serum metabolic parameters (NEFA, TCHO, TG, insulin); type: in vivo, C57BL16 mice; details: end of long-term administration; for Serum NEFA / Serum TCHO / Serum TG / Serum insulin: fasted overnight
From the text: Experimental animals: […] Table 18 was a total data table of the metabolic parameters.

[2] = Dynamic vapor sorption (DVS); type: physicochemical
Procedure: Dynamic vapor sorption (DVS): Dynamic vapor sorption (DVS) curves were acquired by DVS Intrinsic of SMS (Surface Measurement Systems). The relative humidity at 25° C. was corrected by deliquescence points of LiCl, Mg(NO3)2 and KCl.
The crystal form B of phosphate prepared in this example was put into a 1.5 mL small bottle and the small bottles was placed under different conditions: 40° C./75% RH or 25° C./60% RH for one week in an open state, or 80° C. for 24 h. The obtained samples were subjected to XRPD test and HPLC test, and the sealed samples placed at 5° C. were used as reference samples (Initial) for HPLC purity test. […] The weight gain at 25° C./80% RH is 6.5% compared to 0% RH.

C[C@@H]1c2cnc(C(F)(F)F)n2CCN1C(=O)C[C@H](N)Cc1cc(F)c(F)cc1F [DPPIV-P1, (8R)-7-[(3R)-3-amino-1-oxo-4-(2,4,5-trifluorophenyl)butyl]-5,6,7,8-tetrahydro-8-methyl-3-(trifluoromethyl)imidazo[1,5-a]pyrazine]
decrease of insulin compared with the model control group ([1]; 0.3 mg/kg): 28.3% | Serum NEFA ([1]; 0.3 mg/kg): 1.21 ± 0.07 mmol/L | Serum TCHO ([1]; 0.3 mg/kg): 5.01 ± 0.58 mmol/L | Serum TG ([1]; 0.3 mg/kg): 1.04 ± 0.13 mmol/L | Serum insulin ([1]; 0.3 mg/kg): 3.2 ± 2.44 ng/mL | Serum NEFA ([1]; 3 mg/kg): 1.08 ± 0.14 mmol/L | Serum TCHO ([1]; 3 mg/kg): 5.06 ± 0.65 mmol/L | Serum TG ([1]; 3 mg/kg): 0.94 ± 0.15 mmol/L | Serum insulin ([1]; 3 mg/kg): 4.7 ± 3.55 ng/mL | decrease of total cholesterol (TCHO) compared with the model control group ([1]; 30 mg/kg): 18.4% | Serum NEFA ([1]; 30 mg/kg): 1.01 ± 0.11 mmol/L | Serum TCHO ([1]; 30 mg/kg): 4.36 ± 0.45 mmol/L | Serum TG ([1]; 30 mg/kg): 0.83 ± 0.11 mmol/L | Serum insulin ([1]; 30 mg/kg): 4.9 ± 4.04 ng/mL | weight gain (DVS) ([2]; 25° C./80% RH compared to 0% RH): 6.5% | crystal form before and after the DVS test (XRPD) ([2]; after DVS test): the crystal form remained unchanged
